Test results reported in US20260125426A1, “CYCLIC CELL-PENETRATING PEPTIDES AND USES THEREOF” (Ohio State Innovation Foundation, priority 2022, published 2026).
“And” between values parts separate entries of the source, which are not always exact repeats. Equal entries are not always repeated. *1 amine or outer side, *2 acyl side, *3 side chain or, on linkers, in order; H or OH if unused. Bridges are numbered along the chain shown (N, C = ends). Bi = bismuth bicyclization of the Cys thiols (peptides reacted with BiBr3), [Bi]([*:1])([*:2])[*:3]; Lys(NF) = lysine with naphthofluorescein (NF) attached to its side chain; Lys(dye) = not defined here; AEEA = NCCOCCOCC(=O)O

Experiments:
[1] = system: HeLa cells; test: Flow cytometry of HeLa cells, cytosolic entry of NF-labeled peptides; type: cell-based; conditions: for MFI^NF (Cytosolic Entry) / cytosolic entry efficiency in the presence of 10% FBS: 2 h, 37° C.; for MFI^NF (Cytosolic Entry): relative to CPP12 (100%); for cytosolic entry efficiency in the presence of 10% FBS: relative to CPP12
Protocol: (§1) Flow cytometry. HeLa cells were cultured in 12-well plates (1.5×10^5 cells/well) overnight. The following day, cells were incubated with 5 μM fluorescently labeled peptide for 2 h in DMEM supplemented with 1% FBS and 1% antibiotic solution. DMSO was used as a negative control. After incubation, cells were detached from plate with 350 μL of 0.25% Trypsin-EDTA solution, diluted with Dulbecco's phosphate buffered saline (DPBS), and pelleted at 300 g for 5 min. Cells were washed twice with DPBS, resuspended in DPBS, and analyzed on a BD FACS LSR II flow cytometer.
(§2) To evaluate their cell entry efficiencies, the BCPs and pBCPs were labeled with tetramethylrhodamine (TMR) or naphthofluorescein (NF) on a C-terminal lysine residue (FIGS. 2A, 2B, and 4). […] The labeled peptides were purified again by reversed-phase HPLC and their authenticity was confirmed by high-resolution mass spectrometry.
(§3) HeLa cells were treated with 5 μM dye-labeled BCPs (or pBCPs), CPP12, Tat, or DMSO (equal volume) for 2 h at 37° C., washed to remove any peptides in the medium, and analyzed by flow cytometry. The mean fluorescence intensity (MFI) value of TMR (which is pH insensitive) reflects the total amount of CPP inside the HeLa cells (total cellular uptake). On the other hand, NF is a pH sensitive dye, having an apparent pKa of 7.8. NF is unprotonated and fluorescent inside the neutral environment of the cytosol (and nucleus) but is nearly completely protonated and nonfluorescent in the acidic environments of endosomes and lysosomes. Thus, the MFI value of NF provides a convenient estimate of the peptides that have reached the cytosol.
Note that cell entry assays were performed by treating HeLa cell with 2 μM naphthofluorescein (NF)-labeled peptide for 2 h at 37° C. Under this condition, the BCPs enter the cell almost exclusively by endocytosis and endosomal escape. A small fraction of the CPP12^NF-treated cells (˜10%) underwent direct translocation of CPP12^NF; this fraction of highly fluorescent cells was not included in the data analysis. The cellular entry of pBCP427-4 was confirmed by live-cell confocal microscopy (FIG. 6).
BCP16a, BCP16b, and pBCP427-4a were labeled with NF and their cytosolic entry efficiencies were assessed by flow cytometry analysis of HeLa cells after treatment with 2 μM peptide at 37° C. for 2 h. […] CPP12 was previously shown to be highly sensitive to serum proteins (Buyanova, M., et al., (2022). Discovery of a Cyclic Cell-Penetrating Peptide with Improved Endosomal Escape and Cytosolic Delivery Efficiency. Molecular pharmaceuties, 19 (5). 1378-1388).

[2] = system: HeLa cells; test: Flow cytometry of HeLa cells, total cellular uptake of TMR-labeled peptides; type: cell-based; conditions: 5 μM TMR-labeled peptide, 2 h, 37° C., relative to CPP12 (100%)
Protocol: as §1, §2, §3

[3] = 2 μM NF-labeled peptide, 1% FBS

Compound	MFI^NF (Cytosolic Entry) ([1]; 5 μM NF-labeled peptide)	MFI^NF (Cytosolic Entry) [1, 3]	other results
CWYCRRRC (Ac-CWYCRRRC-{AEEA-Lys(dye)-NH2}; linker 1-4-8 via Bi (inferred); reading uncertain) [pBCP11]	14 ± 1%		
Ac-CRRRφRFCQWC [BCP9A5-1]		30 ± 1%	
CWYRRRCAC (Ac-CWYRRRCAC-{AEEA-Lys(dye)-NH2}; linker 1-7-9 via Bi (inferred); reading uncertain) [pBCP12]	12 ± 1%		
HS-CH2-CO-rRrRC(Bta)φC [BCP15]		108 ± 4%	
Ac-CFΦRRCRRC [BCP3]			MFI^TMR (Total Cellular Uptake) [2]: 13 ± 2%
CRRCRWFC (Ac-CRRCRWFC-{AEEA-Lys(dye)-NH2}; linker 1-4-8 via Bi (inferred); reading uncertain) [pBCP7]			MFI^TMR (Total Cellular Uptake) [2]: 10 ± 0.1%
CRRRWYWCAAC (Ac-CRRRWYWCAAC-{AEEA-Lys(dye)-NH2}; linker 1-8-11 via Bi (inferred); reading uncertain) [pBCP8]			MFI^TMR (Total Cellular Uptake) [2]: 8.4%
Ac-CWSQWFCFQRRC (Ac-CWSQWFCFQRRC-{AEEA-Lys(NF)-NH2}; linker 1-7-12 via Bi (inferred)) [pBCP427-7]		69 ± 3%	
CYYRRCRAC (Ac-CYYRRCRAC-{AEEA-Lys(dye)-NH2}; linker 1-6-9 via Bi (inferred); reading uncertain) [pBCP15]	16 ± 3%		
Ac-CWSNWCFQRRC (Ac-CWSNWCFQRRC-{AEEA-Lys(NF)-NH2}; linker 1-6-11 via Bi (inferred)) [pBCP427-5]		76 ± 1%	
Ac-CFΦCRRRRC [BCP1]			MFI^TMR (Total Cellular Uptake) [2]: 12 ± 2%
HS-CH2-CO-rRrRCφ(Bta)φC [BCP16b]		98% and 98 ± 1%	cytosolic entry efficiency in the presence of 10% FBS ([1]; 2 μM NF-labeled peptide): 169%
Ac-CWSNWFCQRRC (Ac-CWSNWFCQRRC-{AEEA-Lys(NF)-NH2}; linker 1-7-11 via Bi (inferred)) [pBCP427-6]		65 ± 1%	
HS-CH2-CO-rRrRCΦφC [BCP14]		86 ± 2%	
Ac-CWSNWFCFQRRCRRF (Ac-CWSNWFCFQRRCRRF-{AEEA-Lys(NF)-NH2}; linker 1-7-12 via Bi (inferred)) [pBCP427-1]		94 ± 22%	
Ac-CrRrRCΦfC [BCP4]	51 ± 16%	51 ± 16%	
CWSNWFCFQRRCRRFA (Ac-CWSNWFCFQRRCRRFA-{AEEA-Lys(dye)-NH2}; linker 1-7-12 via Bi (inferred); reading uncertain) [pBCP427]	41% and 41 ± 5%	131 ± 1%	
HS-CH2-CO-φSNφFCfQrRCRrFa [BCP427-1]		84 ± 2%	
CFWRCRRC (Ac-CFWRCRRC-{AEEA-Lys(dye)-NH2}; linker 1-5-8 via Bi (inferred); reading uncertain) [pBCP6]			MFI^TMR (Total Cellular Uptake) [2]: 9.0 ± 0.7%
CARCRRRWYWC (Ac-CARCRRRWYWC-{AEEA-Lys(dye)-NH2}; linker 1-4-11 via Bi (inferred); reading uncertain) [pBCP3]			MFI^TMR (Total Cellular Uptake) [2]: 3%
Ac-CWSNWFCFQRRCR (Ac-CWSNWFCFQRRCR-{AEEA-Lys(NF)-NH2}; linker 1-7-12 via Bi (inferred)) [pBCP427-3]		101 ± 3%	

Compound	MFI^NF (Cytosolic Entry) ([1]; 5 μM NF-labeled peptide)	MFI^NF (Cytosolic Entry) [1, 3]	other results
CWYRRCRAC (Ac-CWYRRCRAC-{AEEA-Lys(dye)-NH2}; linker 1-6-9 via Bi (inferred); reading uncertain) [pBCP4]	10 ± 4%		MFI^TMR (Total Cellular Uptake) [2]: 11 ± 1%
CWYRRRCRAC (Ac-CWYRRRCRAC-{AEEA-Lys(dye)-NH2}; linker 1-7-10 via Bi (inferred); reading uncertain) [pBCP9]	12 ± 4%		
CWYWRRCRAC (Ac-CWYWRRCRAC-{AEEA-Lys(dye)-NH2}; linker 1-7-10 via Bi (inferred); reading uncertain) [pBCP10]	17% and 17 ± 2%		cytosolic entry, fold less active than CPP12 ([1]; 5 μM): 6 fold; cytosolic entry, fold more active than Tat ([1]; 5 μM): 5 fold
Ac-CfΦRrCRrC [BCP10]	56 ± 32%		
Ac-CRRRRCΦFC [BCP2]			MFI^TMR (Total Cellular Uptake) [2]: 15 ± 4%
HS-CH2-CO-φSNφFCfQrRC [BCP427-2]		118 ± 4%	
HS-CH2-CO-rRrRcΦ(Bta)φC [BCP16a]		156% and 156 ± 4%	cytosolic entry efficiency in the presence of 10% FBS ([1]; 2 μM NF-labeled peptide): 821%
Ac-CFΦRrRCAAC [BCP13]	30 ± 3%		
Ac-CΣΦRRCrrC [BCP9]	43%		
Ac-CFΦRRRRCAAAC [BCP11]	13%		
CFFRRRCRAC (Ac-CFFRRRCRAC-{AEEA-Lys(dye)-NH2}; linker 1-7-10 via Bi (inferred); reading uncertain) [pBCP16]	15 ± 1%		
AWYRRARAA [pBCP4a, linear variant of pBCP4, three cysteine residues replaced with Ala]	5.4%		cytosolic entry, fold less active than pBCP4 ([1]; 5 μM, linear Ala variant vs cyclized peptide): ~2 fold
CRRRRCWYWC (Ac-CRRRRCWYWC-{AEEA-Lys(dye)-NH2}; linker 1-6-10 via Bi (inferred); reading uncertain) [pBCP1]	12 ± 4%		MFI^TMR (Total Cellular Uptake) [2]: 9.3 ± 1.9%
CFFFRRRCRAC (Ac-CFFFRRRCRAC-{AEEA-Lys(dye)-NH2}; linker 1-8-11 via Bi (inferred); reading uncertain) [pBCP17]	15 ± 1%		
Ac-CrRrRCΦfFC [BCP5]	45 ± 1%		
Ac-CFΦRRCrrC [BCP8]	38 ± 1%		
Ac-CWSNWFCFQRRCRR (Ac-CWSNWFCFQRRCRR-{AEEA-Lys(NF)-NH2}; linker 1-7-12 via Bi (inferred)) [pBCP427-2]		45 ± 1%	
Ac-CRRRφCF(dNle)QWC [BCP9A5-2]		43 ± 2%	
CC(=O)N[C@@H](C)C(=O)N[C@@H](Cc1c[nH]c2ccccc12)C(=O)N[C@@H](CO)C(=O)N[C@@H](CC(N)=O)C(=O)N[C@@H](Cc1c[nH]c2ccccc12)C(=O)N[C@@H](Cc1ccccc1)C(=O)N[C@@H](C)C(=O)N[C@@H](Cc1ccccc1)C(=O)N[C@@H](CCC(N)=O)C(=O)N[C@@H](CCCNC(=N)N)C(=O)N[C@@H](CCCNC(=N)N)C(=O)N[C@@H](C)C(=O)NCCOCCOCC(=O)N[C@@H](CCCCNC(=O)c1ccc2c(c1)C(=O)OC21c2ccc3cc(O)ccc3c2Oc2c1ccc1cc(O)ccc21)C(N)=O [pBCP427-4Ala]		18% and 18 ± 2%	
CARCRRYWC (Ac-CARCRRYWC-{AEEA-Lys(dye)-NH2}; linker 1-4-9 via Bi (inferred); reading uncertain) [pBCP5]			MFI^TMR (Total Cellular Uptake) [2]: 9.2%
CWYRCRRC (Ac-CWYRCRRC-{AEEA-Lys(dye)-NH2}; linker 1-5-8 via Bi (inferred); reading uncertain) [pBCP13]	11 ± 1%		
